This note sets out measurements from PubChem BioAssay (NCI).

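Step 1: Grow cells in 96-well plates. Step 2: Expose to compound for 48 hours at 5 concentrations. Step 3: Interpolate endpoints linearly; if unreached, use highest concentration. Definition used: TGI = concentration required for complete inhibition of growth.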

The first assay has as its system K-562 leukemia. Nature of the assay: growth of human tumour cells (NCI), 48 h.
Molecule `O=C1OCC(O)=C1C(c1ccc(Cl)cc1)c1cc2c(cc1O)OCO2` (stereo not given) displayed a TGI above 100 µM.

Another assay relates to NCI-H226 lung. The experiment in a line: growth of human tumour cells (NCI), 48 h.
As for `CCC[C@@H](O)C[C@@H]1CCC[C@H](C[C@@H](O)CC)N1C`, the TGI is above 100 µM.

Take `O=C1C(=Cc2ccc(O)cc2)N=C(c2ccccc2)N1n1c(-c2ccccc2)nc2ccccc2c1=O`: the TGI was above 100 µM.

Consider `O=C1OCC(O)=C1C(c1ccc(Cl)cc1)c1cc2c(cc1O)OCO2` (stereo not given), for which the TGI was above 100 µM.

Another assay concerns KM12 colon. The experiment in a line: growth of human tumour cells (NCI), 48 h.
The molecule `CCC[C@@H](O)C[C@@H]1CCC[C@H](C[C@@H](O)CC)N1C` gave a TGI above 100 µM.

Molecule `CC[C@@]1(C[C@H]2C[C@@]3(C(=O)OC)c4[nH]c5ccccc5c4CCN3C2=O)COC2(CCCCC2)O1` yielded a TGI of 66.9 µM.

As to `O=C1C(=Cc2ccc(O)cc2)N=C(c2ccccc2)N1n1c(-c2ccccc2)nc2ccccc2c1=O`, the TGI was above 100 µM.

Turning to `O=C1OCC(O)=C1C(c1ccc(Cl)cc1)c1cc2c(cc1O)OCO2` (stereo not given), the TGI was above 100 µM.

Another assay concerns UACC-257 melanoma. Nature of the assay: growth of human tumour cells (NCI), 48 h.
`CCC[C@@H](O)C[C@@H]1CCC[C@H](C[C@@H](O)CC)N1C` came in with a TGI above 100 µM.

Turning to `CC[C@@]1(C[C@H]2C[C@@]3(C(=O)OC)c4[nH]c5ccccc5c4CCN3C2=O)COC2(CCCCC2)O1`, the TGI amounted to 64.2 µM.

The molecule `O=C1C(=Cc2ccc(O)cc2)N=C(c2ccccc2)N1n1c(-c2ccccc2)nc2ccccc2c1=O` gave a TGI above 100 µM.

Another assay has as its system SW-620 colon. Nature of the assay: growth of human tumour cells (NCI), 48 h.
Molecule `CCC[C@@H](O)C[C@@H]1CCC[C@H](C[C@@H](O)CC)N1C` showed a TGI above 100 µM.

Consider `O=C1C(=Cc2ccc(O)cc2)N=C(c2ccccc2)N1n1c(-c2ccccc2)nc2ccccc2c1=O`, for which the TGI was above 100 µM.

In the case of `O=C1OCC(O)=C1C(c1ccc(Cl)cc1)c1cc2c(cc1O)OCO2` (stereo not given), the TGI was above 100 µM.

A further assay concerns LOX IMVI melanoma. Nature of the assay: growth of human tumour cells (NCI), 48 h.
Turning to `CCC[C@@H](O)C[C@@H]1CCC[C@H](C[C@@H](O)CC)N1C`, the TGI was above 100 µM.

The molecule `CC[C@@]1(C[C@H]2C[C@@]3(C(=O)OC)c4[nH]c5ccccc5c4CCN3C2=O)COC2(CCCCC2)O1` displayed a TGI above 100 µM.

Turning to `O=C1C(=Cc2ccc(O)cc2)N=C(c2ccccc2)N1n1c(-c2ccccc2)nc2ccccc2c1=O`, the TGI was above 100 µM.

`O=C1OCC(O)=C1C(c1ccc(Cl)cc1)c1cc2c(cc1O)OCO2` (stereo not given): the TGI was above 100 µM.

In another assay the test system is COLO 205 colon. The experiment in a line: growth of human tumour cells (NCI), 48 h.
With `CCC[C@@H](O)C[C@@H]1CCC[C@H](C[C@@H](O)CC)N1C`, the TGI was above 100 µM.

With `CC[C@@]1(C[C@H]2C[C@@]3(C(=O)OC)c4[nH]c5ccccc5c4CCN3C2=O)COC2(CCCCC2)O1`, the TGI was above 100 µM.

Molecule `O=C1C(=Cc2ccc(O)cc2)N=C(c2ccccc2)N1n1c(-c2ccccc2)nc2ccccc2c1=O` came in with a TGI above 100 µM.

`O=C1OCC(O)=C1C(c1ccc(Cl)cc1)c1cc2c(cc1O)OCO2` (stereo not given) yielded a TGI above 100 µM.

For a further assay, the system named is 786-0 renal. The experiment in a line: growth of human tumour cells (NCI), 48 h.
`CCC[C@@H](O)C[C@@H]1CCC[C@H](C[C@@H](O)CC)N1C`: the TGI was above 100 µM.

As for `CC[C@@]1(C[C@H]2C[C@@]3(C(=O)OC)c4[nH]c5ccccc5c4CCN3C2=O)COC2(CCCCC2)O1`, the TGI is above 100 µM.

`O=C1C(=Cc2ccc(O)cc2)N=C(c2ccccc2)N1n1c(-c2ccccc2)nc2ccccc2c1=O`: the TGI was above 100 µM.

Molecule `O=C1OCC(O)=C1C(c1ccc(Cl)cc1)c1cc2c(cc1O)OCO2` (stereo not given) registered a TGI above 100 µM.

In a further assay the test system is SK-MEL-28 melanoma. Nature of the assay: growth of human tumour cells (NCI), 48 h.
In the case of `CCC[C@@H](O)C[C@@H]1CCC[C@H](C[C@@H](O)CC)N1C`, the TGI was above 100 µM.

With `O=C1C(=Cc2ccc(O)cc2)N=C(c2ccccc2)N1n1c(-c2ccccc2)nc2ccccc2c1=O`, the TGI is above 100 µM.

Molecule `O=C1OCC(O)=C1C(c1ccc(Cl)cc1)c1cc2c(cc1O)OCO2` (stereo not given) gave a TGI above 100 µM.

A further assay deals with UACC-62 melanoma. Nature of the assay: growth of human tumour cells (NCI), 48 h.
In turn, `CCC[C@@H](O)C[C@@H]1CCC[C@H](C[C@@H](O)CC)N1C` displayed a TGI above 100 µM.

`CC[C@@]1(C[C@H]2C[C@@]3(C(=O)OC)c4[nH]c5ccccc5c4CCN3C2=O)COC2(CCCCC2)O1`: the TGI was above 100 µM.

In turn, `O=C1C(=Cc2ccc(O)cc2)N=C(c2ccccc2)N1n1c(-c2ccccc2)nc2ccccc2c1=O` gave a TGI above 100 µM.

In turn, `O=C1OCC(O)=C1C(c1ccc(Cl)cc1)c1cc2c(cc1O)OCO2` (stereo not given) gave a TGI above 100 µM.

Another assay relates to ACHN renal. Nature of the assay: growth of human tumour cells (NCI), 48 h.
`CCC[C@@H](O)C[C@@H]1CCC[C@H](C[C@@H](O)CC)N1C` had a TGI above 100 µM.

For `CC[C@@]1(C[C@H]2C[C@@]3(C(=O)OC)c4[nH]c5ccccc5c4CCN3C2=O)COC2(CCCCC2)O1`, the TGI is above 100 µM.

`O=C1OCC(O)=C1C(c1ccc(Cl)cc1)c1cc2c(cc1O)OCO2` (stereo not given) returned a TGI above 100 µM.

Another assay concerns EKVX NSCLC. Nature of the assay: growth of human tumour cells (NCI), 48 h.
`CCC[C@@H](O)C[C@@H]1CCC[C@H](C[C@@H](O)CC)N1C` showed a TGI above 100 µM.

Regarding `CC[C@@]1(C[C@H]2C[C@@]3(C(=O)OC)c4[nH]c5ccccc5c4CCN3C2=O)COC2(CCCCC2)O1`, the TGI was above 100 µM.

`O=C1C(=Cc2ccc(O)cc2)N=C(c2ccccc2)N1n1c(-c2ccccc2)nc2ccccc2c1=O` gave a TGI above 100 µM.

For `O=C1OCC(O)=C1C(c1ccc(Cl)cc1)c1cc2c(cc1O)OCO2` (stereo not given), the TGI is above 100 µM.

The next assay relates to SNB-75 CNS. Nature of the assay: growth of human tumour cells (NCI), 48 h.
The molecule `CC[C@@]1(C[C@H]2C[C@@]3(C(=O)OC)c4[nH]c5ccccc5c4CCN3C2=O)COC2(CCCCC2)O1` returned a TGI above 100 µM.

As to `O=C1C(=Cc2ccc(O)cc2)N=C(c2ccccc2)N1n1c(-c2ccccc2)nc2ccccc2c1=O`, the TGI is above 100 µM.

`O=C1OCC(O)=C1C(c1ccc(Cl)cc1)c1cc2c(cc1O)OCO2` (stereo not given) came in with a TGI above 100 µM.

For a further assay, the system named is HL-60(TB) leukemia. Nature of the assay: growth of human tumour cells (NCI), 48 h.
As for `CCC[C@@H](O)C[C@@H]1CCC[C@H](C[C@@H](O)CC)N1C`, the TGI was above 100 µM.

As for `CC[C@@]1(C[C@H]2C[C@@]3(C(=O)OC)c4[nH]c5ccccc5c4CCN3C2=O)COC2(CCCCC2)O1`, the TGI was above 100 µM.

Take `O=C1C(=Cc2ccc(O)cc2)N=C(c2ccccc2)N1n1c(-c2ccccc2)nc2ccccc2c1=O`: the TGI is above 100 µM.

As for `O=C1OCC(O)=C1C(c1ccc(Cl)cc1)c1cc2c(cc1O)OCO2` (stereo not given), the TGI was above 100 µM.

In the next assay the test system is CCRF-CEM leukemia. Nature of the assay: growth of human tumour cells (NCI), 48 h.
For `CCC[C@@H](O)C[C@@H]1CCC[C@H](C[C@@H](O)CC)N1C`, the TGI is above 100 µM.

Molecule `O=C1C(=Cc2ccc(O)cc2)N=C(c2ccccc2)N1n1c(-c2ccccc2)nc2ccccc2c1=O` came in with a TGI above 100 µM.

The molecule `O=C1OCC(O)=C1C(c1ccc(Cl)cc1)c1cc2c(cc1O)OCO2` (stereo not given) displayed a TGI above 100 µM.
